Measured values: paper PMC9607427, “Novel 7-Chloro-(4-thioalkylquinoline) Derivatives: Synthesis and Antiproliferative Activity through Inducing Apoptosis and DNA/RNA Damage” (Pharmaceuticals, 2022)

Assays:
CCRF-CEM lymphoblasts = assay: Mitosis, pH3Ser10 antibody labeling, flow cytometry; type: cell-based, human; settings: 24 h
Procedure: The effect of compounds on cell cycle distribution was determined to gain insights into the mechanism of its antiproliferative activity. […] For example, as compared with control, the percentage of cells in G2/M phases was increased by treatment with 5 × IC50 μM of compounds for 24 h (Table 4). […] As shown in (Table 4), there was a marked increase in the sub-G1 from 2.91 in untreated cells. 5-Bromo-2-deoxyuridine (BrDU) is incorporated into newly synthesized DNA, and 5-bromouridine (BrU) pulse labeling is therefore commonly used as a proliferation marker. Low BrDU and BrU incorporation into the DNA or RNA, respectively, of treated cells with all compounds at 5 × IC50 reflected inhibition of DNA and RNA synthesis, indicating irreversible apoptotic changes. The percentage of […] cells incorporating 5-bromouridine is proportional to the transcriptional activity of CCRF-CEM cells.
CCRF-CEM cells were seeded at a density of 1 × 10^6 cells per one mL in 6-well plates (TTP) and were cultivated with compounds at concentrations corresponding to 1 × or 5 × IC50 value. Together with the compounds-treated cells, a vehicle-treated sample was harvested at the same time point. After 24 h, the cells were washed with cold phosphate-buffered saline (PBS) and fixed in 70% ethanol added dropwise and stored overnight at −20 °C. Afterward, cells were washed in hypotonic citrate buffer, treated with RNase (50 µg mL^−1), and stained with propidium iodide. Flow cytometry using a 488 nm single beam laser (Becton Dickinson) was used for measurement. The cell cycle was analyzed by the software ModFitLT (Verity), and apoptosis was measured in a logarithmic model expressing the percentage of the particles with propidium content lower than cells in the G0/G1 phase (<G1) of the cell cycle. Half of the sample was used for pH3Ser10 antibody (Sigma) labeling and subsequent flow cytometry analysis of the cells in mitosis.

[1] = test system: A549 (lung adenocarcinoma); assay: Cytotoxic MTS assay, A549; type: cell-based, human
Method in brief: (§1)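 Cells seeded at 25,000–35,000 cells/mL were exposed to compounds (four-fold dilutions from DMSO) for 72 h at 37 °C, 5% CO2. Viability was read by MTS metabolic staining, OD at 490 nm after 1–4 h, and IC50 taken as the concentration giving 50% growth inhibition.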

[2] = test system: HCT116 (colorectal carcinoma); assay: Cytotoxic MTS assay, HCT116; type: cell-based, human
Method in brief: as §1

[3] = test system: CCRF-CEM (childhood T cell acute lymphoblastic leukemia); assay: Cytotoxic MTS assay, CCRF-CEM; type: cell-based, human
Method in brief: as §1

[4] = test system: BJ (noncancerous human fibroblasts from foreskin); assay: Cytotoxic MTS assay, BJ; type: cell-based
Method in brief: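 MTS, 72 h exposure, 37 °C/5% CO2; 4-fold serial dilutions added at t0; OD490 after 1–4 h MTS; IC50 = 50% growth inhibition; technical duplicates, ≥3 biological replicates.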

[5] = test system: K562-TAX (chronic myeloid leukemia paclitaxel-resistant subline); assay: Cytotoxic MTS assay, K562-TAX; type: cell-based, human
Method in brief: as §1

U2OS (osteosarcoma) = assay: Cytotoxic MTS assay, U2OS; type: cell-based, human
Method in brief: as §1

[6] = 5 × IC50 (second value of cell)

SMILES	M (Mitosis Phospho-Histone3 (Ser10)), % of Total Cellular Populations (CCRF-CEM lymphoblasts; 1 × IC50 (first value of cell)) [%]	M (Mitosis Phospho-Histone3 (Ser10)), % of Total Cellular Populations (CCRF-CEM lymphoblasts; [6]) [%]	IC50 [1] [µM]	IC50 [2] [µM]	IC50 [3] [µM]	IC50 [4] [µM]	IC50 [5] [µM]	IC50 (U2OS (osteosarcoma)) [µM]
COc1ccc(OC)c(C(=O)OCCS(=O)(=O)c2cc[n+]([O-])c3cc(Cl)ccc23)c1 [Compound 65, 2-[(N-Oxide 7-chloroquinolin-4-yl)sulfonyl]ethyl-2,5-dimethoxybenzoate]	1	1.66	28.2	8.83	0.55	22.2	6.65	7.67
O=C(OCCS(=O)(=O)c1cc[n+]([O-])c2cc(Cl)ccc12)c1ccc(C(F)(F)F)cc1 [Compound 72, 2-[(N-Oxide 7-chloroquinolin-4-yl)sulfonyl]ethyl-4-(trifluoromethyl)benzoate]	1.61	5.28	28.5	17.3	2.14	28.7	6.06	18.4
COc1ccc(C(=O)OCCS(=O)(=O)c2cc[n+]([O-])c3cc(Cl)ccc23)cc1[N+](=O)[O-] [Compound 69, 2-[(N-Oxide 7-chloroquinolin-4-yl)sulfonyl]ethyl-4-methoxy-3-nitrobenzoate]	1.61	1.6	28.3	13.1	1.38	27.2	7.32	10.3
COc1ccc(C(=O)OCCS(=O)(=O)c2cc[n+]([O-])c3cc(Cl)ccc23)cc1 [Compound 63, 2-[(N-Oxide 7-chloroquinolin-4-yl)sulfonyl]ethyl-4-methoxybenzoate]	1.66	1.53	28.8	16.2	0.77	23.9	4.71	5.71
COc1cc(OC)c(C(=O)OCCS(=O)(=O)c2cc[n+]([O-])c3cc(Cl)ccc23)cc1OC [Compound 66, 2-[(N-Oxide 7-chloroquinolin-4-yl)sulfonyl]ethyl-2,4,5-trimethoxybenzoate]	1.64	2.29	28	9.22	1.11	21.2	6.25	8.25
Cc1ccc([N+](=O)[O-])c(C(=O)OCCS(=O)(=O)c2cc[n+]([O-])c3cc(Cl)ccc23)c1 [Compound 70, 2-[(N-Oxide 7-chloroquinolin-4-yl)sulfonyl]ethyl-5-methyl-2-nitrobenzoate]	1.57	1.08	28.2	11.5	1.16	25.7	6.89	9.92
COc1ccccc1C(=O)OCCS(=O)(=O)c1cc[n+]([O-])c2cc(Cl)ccc12 [Compound 68, 2-[(N-Oxide 7-chloroquinolin-4-yl)sulfonyl]ethyl-2-methoxybenzoate]	1.73	2.11	27	5.25	1.23	24.6	4.63	6.9
